The source of these data is DBAASP.

Holding throughout (assay): ≥ marks a high value that may be exact or a test limit, other limits are often not marked, values filed in µg/mL are converted to µM
For experiment [1], the system named is Escherichia coli ATCC 25922.
The test system of experiment [2] is Bacillus subtilis ATCC 6633.
In experiment [3] the test system is Staphylococcus aureus ATCC 25923.
Experiment [4] relates to Salmonella enterica subsp. enterica serovar Enteritidis BNCC 103134.
Experiment [5] deals with Bacillus megaterium NRRL B-4272.
Experiment [6] relates to Staphylococcus aureus ATCC 9144.
Experiment [7] has as its system Escherichia coli ATCC 10536.
In experiment [8] the test system is Pseudomonas aeruginosa ATCC 27853.
For experiment [9], the system named is Cryptococcus neoformans var. grubii H99.
In experiment [10] the test system is Escherichia coli K-12.
The test system of experiment [11] is Acinetobacter baumannii ATCC 19606.
For experiment [12], the system named is Klebsiella pneumoniae ATCC 700603.
In experiment [13] the test system is Staphylococcus aureus JE2.
Experiment [14] concerns Candida albicans ATCC 90028.
Experiment [15] concerns Staphylococcus aureus ATCC 43300.
Experiment [16] deals with Staphylococcus aureus.
Experiment [17] relates to Salmonella enterica subsp. enterica NBRC 100797.
Experiment [18] has as its system Escherichia coli DH5alpha.
In experiment [19] the test system is Escherichia coli NBRC 3972.
Experiment [20] deals with Proteus vulgaris NBRC 3045.
Experiment [21] deals with Pseudomonas aeruginosa NBRC 13275.
Experiment [22] has as its system Klebsiella pneumoniae NBRC 3512.
The test system of experiment [23] is Pseudomonas aeruginosa ATCC BAA-2111.
The subject of experiment [24] is Staphylococcus aureus NBRC 13276.
For experiment [25], the system named is Staphylococcus epidermidis.
The subject of experiment [26] is Aspergillus fumigatus.
For experiment [27], the system named is Sporothrix schenckii.
The test system of experiment [28] is Klebsiella pneumoniae ATCC 27736.
In experiment [29] the test system is Bacillus cereus.
The subject of experiment [30] is Escherichia coli ATCC 9637.
Experiment [31] has as its system Pseudomonas aeruginosa ATCC BAA-427.
The test system of experiment [32] is Trichophyton mentagrophytes.
In experiment [33] the test system is Candida parapsilosis ATCC 22019.
Experiment [34] deals with Enterococcus faecalis ATCC 29212.
Experiment [35] concerns Bacillus subtilis MTCC 14416.
Experiment [36] concerns Vibrio cholerae.
For experiment [37], the system named is Escherichia coli MG1655.
Experiment [38] relates to Staphylococcus aureus MTCC 9542.

Converted amounts (≈) assume the structure as drawn. “And” between values parts separate entries of the source, which are not always exact repeats. Equal entries are not always repeated. Bounds are passed on as bounds.

In the case of `CC(C)[C@H](NC(=O)[C@H](C)NC(=O)[C@H](CCCN=C(N)N)NC(=O)[C@H](CC(=O)O)NC(=O)[C@@H](NC(=O)[C@H](C)N)C(C)C)C(=O)O` [AVDRAV], the MIC in experiment [1] is 100 µM (≈ 63 µg/mL); in [2] it was at least 150 µM; in experiment [3] it was 100 µM (≈ 63 µg/mL); in experiment [4], at least 150 µM.
Consider `CC[C@H](C)[C@H](NC(=O)[C@H](Cc1ccccc1)NC(=O)[C@H](CCCCN)NC(=O)[C@H](CCCCN)NC(=O)[C@H](Cc1ccccc1)NC(=O)[C@H](CO)NC(=O)[C@H](Cc1cnc[nH]1)NC(=O)[C@H](CC(C)C)NC(=O)[C@H](C)NC(=O)[C@H](CCCCN)NC(=O)CNC(=O)CNC(=O)CN)C(=O)N[C@@H](CCCCN)C(=O)N[C@@H](C)C(=O)N[C@@H](Cc1ccccc1)C(=O)N[C@H](C(=O)NCC(=O)N[C@@H](CCC(=O)O)C(=O)N[C@H](C(=O)N[C@@H](CCSC)C(=O)N[C@@H](CC(N)=O)C(=O)N[C@@H](CO)C(N)=O)[C@@H](C)CC)C(C)C` [GGGKALHSFKKFIKAFVGEIMNS], for which the MIC was 12 µM (≈ 29.6 µg/mL) in experiment [5], at least 40 µM in experiment [6], 10 µM (≈ 24.7 µg/mL) in [2] and 5 µM (≈ 12.3 µg/mL) in [7].
Consider `CC[C@H](C)[C@H](NC(=O)[C@@H](NC(=O)[C@H](CO)NC(=O)[C@H](C)NC(=O)[C@@H](NC(=O)[C@H](CCCN=C(N)N)NC(=O)[C@H](CCCN=C(N)N)NC(=O)[C@@H](NC(=O)[C@@H](NC(=O)[C@H](CC(=O)O)NC(=O)[C@H](Cc1ccccc1)NC(=O)[C@H](CC(C)C)NC(=O)CN)C(C)C)[C@@H](C)CC)C(C)C)C(C)C)C(=O)NCC(=O)NCC(=O)N[C@@H](CC(C)C)C(=O)O` [GLFDVIRRVASVIGGL], for which the MIC in experiment [1] was 19.1 µM (≈ 32 µg/mL); in [8] it was above 19.1 µM; in experiment [9] it was 9.57 µM (≈ 16 µg/mL); in experiment [10], 19.1 µM (≈ 32 µg/mL); in [11], 19.1 µM (≈ 32 µg/mL); in [12], above 19.1 µM. The MIC in experiment [13], in experiment [14] and in experiment [15] was 9.57 µM (≈ 16 µg/mL) each time.
Regarding `CC(C)C[C@H](NC(=O)[C@H](CCCCN)NC(=O)CNC(=O)[C@H](C)NC(=O)[C@H](CCCCN)NC(=O)[C@H](CCCCN)NC(=O)[C@H](CC(C)C)NC(=O)[C@H](CC(C)C)NC(=O)[C@H](CCCCN)NC(=O)CNC(=O)[C@H](C)NC(=O)[C@H](CCCCN)NC(=O)[C@H](CCCCN)NC(=O)[C@H](CC(C)C)NC(=O)[C@H](CC(C)C)NC(=O)[C@@H](N)CCCCN)C(=O)N[C@@H](CC(C)C)C(=O)N[C@@H](CCCCN)C(=O)N[C@@H](CCCCN)C(=O)N[C@@H](C)C(=O)NCC(N)=O` [KLLKKAGKLLKKAGKLLKKAG], the minimum inhibitory concentration (MIC) was 12.5 µM (≈ 27.9 µg/mL) in [16]; 1.6 µM (≈ 3.57 µg/mL) in experiment [17]; 3.12 µM and 3.1 µM in experiment [18]; 3.12 µM and 3.1 µM in [19]; at least 100 µM in experiment [20]; 1.56 µM and 0.716 µM in experiment [21]. Moreover, the MIC in [22] came out at 0.716 µM (≈ 1.6 µg/mL); in experiment [23] it was 1.39 µM (≈ 3.1 µg/mL); in experiment [24], 5.59 µM (≈ 12.5 µg/mL); in experiment [25] it was 1.56 µM (≈ 3.48 µg/mL).
Regarding `CC(C)C[C@H](NC(=O)[C@H](CC(C)C)NC(=O)[C@H](CCCN=C(N)N)NC(=O)[C@H](CCCN=C(N)N)NC(=O)[C@H](CC(C)C)NC(=O)[C@H](Cc1c[nH]c2ccccc12)NC(=O)[C@H](CCCN=C(N)N)NC(=O)[C@H](CC(C)C)NC(=O)[C@H](CC(C)C)NC(=O)[C@H](CCCN=C(N)N)NC(=O)[C@H](CCCN=C(N)N)NC(=O)[C@@H](N)CC(C)C)C(=O)N[C@@H](CCCN=C(N)N)C(=O)N[C@@H](CCCN=C(N)N)C(=O)O` [LRRLLRWLRRLLRR], the minimal inhibitory concentration (MIC) in experiment [26] is 3.16 µM (≈ 6.25 µg/mL); in [27], 1.59 µM (≈ 3.15 µg/mL); in experiment [28], 1.59 µM (≈ 3.15 µg/mL); in experiment [3] it was 0.789 µM (≈ 1.56 µg/mL); in experiment [29] it was 1.59 µM (≈ 3.15 µg/mL); in experiment [30] it was 12.6 µM (≈ 25 µg/mL). Further, the results for the MIC in experiment [31], in experiment [32] and in [33] were 12.6 µM (≈ 25 µg/mL), 3.16 µM (≈ 6.25 µg/mL) and 3.16 µM (≈ 6.25 µg/mL), respectively.
As for `CC[C@H](C)[C@@H]1NC(=O)[C@H](CCCCN)NC(=O)[C@@H](NC(=O)[C@H](CC(C)C)NC(=O)[C@@H](NC(=O)[C@H](CCC(N)=O)NC(=O)[C@@H]2CCCN2C(=O)[C@H](CC(C)C)NC(=O)[C@H](Cc2ccccc2)NC(=O)[C@H](CC(N)=O)NC(=O)[C@H](C)NC(=O)[C@H](C)NC(=O)[C@H](CC(C)C)NC(=O)CNC(=O)[C@H](C)NC(=O)[C@@H](NC(=O)[C@@H](N)CCCN=C(N)N)[C@@H](C)CC)[C@@H](C)CC)CSSC[C@@H](C(N)=O)NC(=O)[C@H](CCCCN)NC(=O)[C@H](CCCN=C(N)N)NC(=O)[C@H](C)NC1=O` [RIAGLAANFLPQILCKIARKC], the minimal inhibitory concentration (MIC) in experiment [8] is above 43.5 µM; in [34] it was 21.7 µM (≈ 49.9 µg/mL); in experiment [35] it was 21.7 µM (≈ 49.9 µg/mL); in experiment [36], 5.44 µM (≈ 12.5 µg/mL); in experiment [15] it was 10.9 µM (≈ 25 µg/mL); in experiment [37], 10.9 µM (≈ 25 µg/mL). In [38], this compound returned an MIC of 10.9 µM (≈ 25 µg/mL).
